Laboratory results taken from ChEMBL document CHEMBL1201862, “PubChem BioAssay data set” (2004).
The source made the active and inactive calls.

What was measured:
[1] = target: Casein kinase II subunit alpha (Homo sapiens, UniProt P68400); assay type: functional
[2] = target: Serine/threonine-protein kinase Chk2 (Homo sapiens, UniProt O96017); assay type: functional;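 note: CHEK2 entry within a kinome-wide screening panel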
[3] = target: Fibroblast growth factor receptor 1 (Homo sapiens, UniProt P11362); assay type: functional
Aurora kinase A = Aurora kinase A (Homo sapiens, UniProt O14965); assay type: functional;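 note: value from the Navigating the Kinome kinase panel profiling, panel entry STK6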
[4] = target: Cyclin-dependent kinase 1 (Homo sapiens, UniProt P06493); assay type: functional;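 note: Kinome-wide panel profiling, with the target listed as panel member CDC2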
[5] = target: MAP/microtubule affinity-regulating kinase 3 (Homo sapiens, UniProt P27448); assay type: functional;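 note: MARK3 affinity measured as one member of a kinome panel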
Orexin receptor type 2 [6] = target: T1, Orexin receptor type 2 (Homo sapiens, UniProt O43614); experiment: Counterscreen assay for antagonists of the orexin 1 receptor (OX1R; HCRTR1): Homogeneous Time Resolved Fluorescence (HTRF)-based cell-based dose response assay for antagonists of the orexin 2 receptor (OX2R; HCRTR2), run by assay provider.; assay type: functional
[7] = target: T2, Orexin/Hypocretin receptor type 1 (Homo sapiens, UniProt O43613); experiment: Homogeneous Time Resolved Fluorescence (HTRF)-based cell-based high throughput dose response assay for antagonists of the orexin 1 receptor (OX1R; HCRTR1). [Related pubchem assays (depositor defined):AID434989, AID435008, AID463079, AID485270, AID492963, AID492964, AID492965, AID493232, AID504717, AID504718]; assay type: functional
[8] = NIH-3T3 fibroblast cytotoxicity, dose response, cytotoxicity control, cell-based, fluorescence, Alamar Blue, secondary assay (AID 2327); assay type: functional;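 note: NIH-3T3 mouse fibroblasts cultured with fluconazole at 8 µg/mL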
[9] = viability of uninfected HEp-2 cells – cell-based, HTS, cytotoxicity control for RSV inhibitor project, dose response (AID 2410); assay type: functional; details: human respiratory syncytial virus
[10] = general cell-killing toxicity readout – plate reader, dry powder samples, cytotoxicity control for PAX8 inhibitor project, dose response (AID 743021); assay type: functional, cell-based
[11] = fluconazole-exposed Candida albicans growth modulators – fluorescence, retest, confirmation (AID 2467); assay type: functional, cell-based
[12] = (§1) Counterscreen for antagonists of the orexin 1 receptor (OX1R; HCRTR1): Fluorescence-based cell-based high throughput dose response assay to identify antagonists of the parental CHO cell line. [Related pubchem assays (depositor defined):AID434989, AID435008, AID463079, AID485270, AID492963, AID492964, AID492965, AID493232, AID504699, AID504701]; assay type: functional
CHO-K1 = experiment: as §1, with “Homogeneous time resolved fluorescence (HTRF)-based” for “Fluorescence-based”, “cell-based” for “cell-based high throughput”, “CHO-K1” for “CHO”; assay type: functional; details: Cricetulus griseus;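 note: potency for inhibition of ATP-stimulated IP1 production as antagonists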
INS1 = experiment: INS-1E survival protection against cytokine death – cell-based, luminescence, retest, dose response (AID 449756); assay type: functional; details: Rattus norvegicus;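 note: cell death triggered by IL-1 beta plus TNF-alpha plus IFN-gamma mixture; protective hits raise ATP signal compared with cytokine alone wells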
Orexin receptor type 2 [13] = target: T1, Orexin receptor type 2; experiment: Counterscreen assay for antagonists of the orexin 1 receptor (OX1R; HCRTR1): Fluorescence-based cell-based dose response assay for antagonists of the orexin 2 receptor (OX2R; HCRTR2), run by assay provider.; assay type: functional
[14] = target: T3, Replicative DNA helicase DnaB (Mycobacterium tuberculosis, UniProt P9WMR3); experiment: DnaB intein splicing inhibitors, dose response, biochemical, cell-free fluorescence (AID 449749); assay type: functional
T3 sequence (P9WMR3 whole entry): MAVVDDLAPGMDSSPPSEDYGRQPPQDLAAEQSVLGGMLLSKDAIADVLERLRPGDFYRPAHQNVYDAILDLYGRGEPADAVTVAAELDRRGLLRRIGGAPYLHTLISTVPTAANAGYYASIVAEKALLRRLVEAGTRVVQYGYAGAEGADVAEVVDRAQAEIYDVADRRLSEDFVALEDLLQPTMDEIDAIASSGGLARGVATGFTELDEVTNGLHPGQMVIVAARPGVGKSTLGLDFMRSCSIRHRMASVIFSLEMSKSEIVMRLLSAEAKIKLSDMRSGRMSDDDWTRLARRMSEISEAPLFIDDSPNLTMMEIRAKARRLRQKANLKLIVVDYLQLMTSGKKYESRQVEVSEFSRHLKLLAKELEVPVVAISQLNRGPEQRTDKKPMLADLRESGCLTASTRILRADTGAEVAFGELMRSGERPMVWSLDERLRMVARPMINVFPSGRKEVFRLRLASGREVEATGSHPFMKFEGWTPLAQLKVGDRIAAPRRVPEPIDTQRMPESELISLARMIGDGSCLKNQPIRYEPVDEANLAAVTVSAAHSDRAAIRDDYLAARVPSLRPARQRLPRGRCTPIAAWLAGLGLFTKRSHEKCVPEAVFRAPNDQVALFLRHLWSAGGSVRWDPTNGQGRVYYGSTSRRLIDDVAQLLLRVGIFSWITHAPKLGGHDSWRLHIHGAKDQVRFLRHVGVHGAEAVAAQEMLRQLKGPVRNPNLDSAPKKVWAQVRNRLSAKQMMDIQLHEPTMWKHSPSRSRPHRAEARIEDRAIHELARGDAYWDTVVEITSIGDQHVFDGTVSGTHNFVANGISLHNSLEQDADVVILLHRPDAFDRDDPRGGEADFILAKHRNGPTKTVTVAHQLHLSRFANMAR

Protein RecA = target: T4, Protein RecA (Mycobacterium tuberculosis, UniProt P9WHJ3); experiment: Fluorescence Cell-Free Homogeneous Dose Retest to Identify Inhibitors of RecA-Intein Splicing Activity. [Related pubchem assays (depositor defined):AID2097, AID2223, AID489010, AID492950]; assay type: functional
T4 sequence (P9WHJ3 whole entry): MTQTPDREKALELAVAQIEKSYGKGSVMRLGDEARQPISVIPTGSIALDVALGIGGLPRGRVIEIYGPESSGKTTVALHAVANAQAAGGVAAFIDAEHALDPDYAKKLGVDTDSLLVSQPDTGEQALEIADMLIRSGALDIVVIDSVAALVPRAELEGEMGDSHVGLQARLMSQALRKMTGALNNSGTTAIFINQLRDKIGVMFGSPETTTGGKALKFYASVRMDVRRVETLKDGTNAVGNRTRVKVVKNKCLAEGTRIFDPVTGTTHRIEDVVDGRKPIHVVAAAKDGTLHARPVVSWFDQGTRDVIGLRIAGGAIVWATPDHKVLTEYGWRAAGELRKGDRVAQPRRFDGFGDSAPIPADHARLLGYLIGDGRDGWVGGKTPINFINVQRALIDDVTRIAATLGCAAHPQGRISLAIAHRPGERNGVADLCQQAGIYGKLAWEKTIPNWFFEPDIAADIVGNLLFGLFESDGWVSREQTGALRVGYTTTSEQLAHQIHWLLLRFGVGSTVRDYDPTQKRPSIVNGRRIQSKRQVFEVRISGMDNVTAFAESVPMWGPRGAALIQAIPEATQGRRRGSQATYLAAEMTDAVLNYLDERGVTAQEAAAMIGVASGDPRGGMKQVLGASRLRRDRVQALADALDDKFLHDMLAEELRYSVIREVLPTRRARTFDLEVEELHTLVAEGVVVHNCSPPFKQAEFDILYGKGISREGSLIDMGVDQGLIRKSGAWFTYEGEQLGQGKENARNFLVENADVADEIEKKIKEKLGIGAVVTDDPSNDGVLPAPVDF

Paired box protein Pax-8 = Paired box protein Pax-8 (Homo sapiens, UniProt Q06710); experiment: PAX8 transcriptional activity inhibition in RMG-I – RMG-I cells, luciferase, cherry-pick, dose response (AID 687027); assay type: functional, cell-based;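 note: luciferase reporter driven by Pax8 target thyroperoxidase promoter measured by SteadyGlo luminescence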
[15] = test system: Streptococcus sp. 'group A'; experiment: Streptococcus pyogenes SK(-)GAS viability under kanamycin – luminescence, BacTiterGlo, confirmation, counter-screen for streptokinase expression inhibitor project, dose response (AID 1900); assay type: functional, organism-based
Streptococcus = experiment: GAS UMAA2166 growth inhibition – luminescence, BacTiterGlo, counter-screen for streptokinase expression inhibitor project, dose response (AID 1915); assay type: functional, organism-based;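 note: potency for reduction of bacterial viability or growth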
Streptokinase A = target: T5, Streptokinase A (Streptococcus pyogenes serotype M1, UniProt P10520); experiment: viability-normalized secreted streptokinase activity reduction – plasminogen activation absorbance, OD405, dose response (AID 1914); assay type: functional, Streptococcus pyogenes M1 GAS;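 note: secreted streptokinase activity via plasminogen activation per viability signal from cell pellet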
T5 sequence (P10520 whole entry): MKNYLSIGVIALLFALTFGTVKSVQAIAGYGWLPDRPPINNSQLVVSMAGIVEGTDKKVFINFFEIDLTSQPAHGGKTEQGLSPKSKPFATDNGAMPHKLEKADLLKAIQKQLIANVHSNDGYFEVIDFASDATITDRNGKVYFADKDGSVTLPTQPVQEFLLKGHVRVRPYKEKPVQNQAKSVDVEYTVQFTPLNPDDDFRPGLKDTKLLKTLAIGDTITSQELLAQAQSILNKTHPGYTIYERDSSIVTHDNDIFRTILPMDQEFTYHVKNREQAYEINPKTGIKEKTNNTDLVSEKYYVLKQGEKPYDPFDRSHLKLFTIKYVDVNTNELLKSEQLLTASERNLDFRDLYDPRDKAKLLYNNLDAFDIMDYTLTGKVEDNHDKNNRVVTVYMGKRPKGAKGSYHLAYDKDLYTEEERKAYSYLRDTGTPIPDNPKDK

[16] = target: T2, Orexin/Hypocretin receptor type 1; experiment: Fluorescence-based cell-based high throughput dose response assay for antagonists of the orexin 1 receptor (OX1R; HCRTR1). [Related pubchem assays (depositor defined):AID434989, AID435008, AID463079, AID485270, AID492963, AID492964, AID492965, AID493232, AID504717, AID504718]; assay type: functional

T1 sequence (O43614 whole entry): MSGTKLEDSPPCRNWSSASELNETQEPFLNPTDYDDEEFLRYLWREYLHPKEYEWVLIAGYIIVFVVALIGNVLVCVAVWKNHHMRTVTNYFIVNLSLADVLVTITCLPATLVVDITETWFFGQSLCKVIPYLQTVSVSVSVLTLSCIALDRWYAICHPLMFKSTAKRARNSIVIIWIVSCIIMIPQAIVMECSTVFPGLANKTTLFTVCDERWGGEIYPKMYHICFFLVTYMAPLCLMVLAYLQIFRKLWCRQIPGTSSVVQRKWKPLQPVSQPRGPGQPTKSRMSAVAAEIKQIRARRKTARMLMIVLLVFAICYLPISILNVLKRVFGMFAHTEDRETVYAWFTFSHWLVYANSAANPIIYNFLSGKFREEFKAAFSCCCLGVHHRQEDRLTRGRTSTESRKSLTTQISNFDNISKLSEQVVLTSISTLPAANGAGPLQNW
T2 sequence (O43613 whole entry): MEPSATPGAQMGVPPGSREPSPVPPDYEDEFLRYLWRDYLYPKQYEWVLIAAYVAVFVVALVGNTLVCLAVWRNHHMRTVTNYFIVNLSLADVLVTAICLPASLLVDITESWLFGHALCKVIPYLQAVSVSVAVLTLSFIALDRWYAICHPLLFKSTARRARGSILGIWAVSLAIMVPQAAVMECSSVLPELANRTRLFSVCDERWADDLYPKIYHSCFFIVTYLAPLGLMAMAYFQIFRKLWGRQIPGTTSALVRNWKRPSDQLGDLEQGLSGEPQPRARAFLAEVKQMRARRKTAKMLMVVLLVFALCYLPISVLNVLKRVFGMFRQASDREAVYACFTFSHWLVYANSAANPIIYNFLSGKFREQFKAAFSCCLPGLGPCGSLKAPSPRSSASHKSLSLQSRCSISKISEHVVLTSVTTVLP
Chain of Cyclin-dependent kinase 1 (P06493 whole entry): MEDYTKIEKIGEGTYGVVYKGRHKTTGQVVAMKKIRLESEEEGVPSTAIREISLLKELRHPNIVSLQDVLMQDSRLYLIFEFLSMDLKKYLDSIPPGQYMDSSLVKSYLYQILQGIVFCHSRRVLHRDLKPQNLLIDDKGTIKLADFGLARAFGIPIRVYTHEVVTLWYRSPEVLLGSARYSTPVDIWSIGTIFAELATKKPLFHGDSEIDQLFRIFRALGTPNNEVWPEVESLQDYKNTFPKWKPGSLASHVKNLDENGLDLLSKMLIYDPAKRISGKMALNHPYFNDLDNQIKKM
Chain of Serine/threonine-protein kinase Chk2 (O96017 whole entry): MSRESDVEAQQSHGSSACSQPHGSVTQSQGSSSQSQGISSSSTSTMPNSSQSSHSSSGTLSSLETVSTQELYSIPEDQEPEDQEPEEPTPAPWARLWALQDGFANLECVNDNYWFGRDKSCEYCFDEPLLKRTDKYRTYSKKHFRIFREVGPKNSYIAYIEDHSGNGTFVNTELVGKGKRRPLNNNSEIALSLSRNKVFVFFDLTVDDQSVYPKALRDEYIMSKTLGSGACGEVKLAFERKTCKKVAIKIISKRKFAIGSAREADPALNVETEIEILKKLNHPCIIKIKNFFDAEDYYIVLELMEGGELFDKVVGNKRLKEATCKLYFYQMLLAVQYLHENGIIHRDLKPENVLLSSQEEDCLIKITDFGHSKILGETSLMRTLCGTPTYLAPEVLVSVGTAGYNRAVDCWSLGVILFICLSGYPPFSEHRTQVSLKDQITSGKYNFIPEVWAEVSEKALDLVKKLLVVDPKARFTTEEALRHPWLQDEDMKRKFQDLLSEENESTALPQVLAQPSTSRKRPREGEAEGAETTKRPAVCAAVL
Chain of Paired box protein Pax-8 (Q06710 whole entry): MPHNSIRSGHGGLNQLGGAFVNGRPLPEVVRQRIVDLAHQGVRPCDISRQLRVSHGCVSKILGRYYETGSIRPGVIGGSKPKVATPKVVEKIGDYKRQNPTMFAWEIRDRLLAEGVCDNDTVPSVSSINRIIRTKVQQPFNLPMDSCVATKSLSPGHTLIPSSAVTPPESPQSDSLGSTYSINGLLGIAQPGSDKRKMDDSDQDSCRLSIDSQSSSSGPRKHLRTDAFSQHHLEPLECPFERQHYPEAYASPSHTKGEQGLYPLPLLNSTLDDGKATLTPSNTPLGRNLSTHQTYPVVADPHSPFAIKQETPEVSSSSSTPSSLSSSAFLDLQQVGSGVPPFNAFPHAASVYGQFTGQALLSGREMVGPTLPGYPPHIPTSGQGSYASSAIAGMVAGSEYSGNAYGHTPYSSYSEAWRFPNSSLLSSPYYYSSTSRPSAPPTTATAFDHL
Chain of Fibroblast growth factor receptor 1 (P11362 whole entry): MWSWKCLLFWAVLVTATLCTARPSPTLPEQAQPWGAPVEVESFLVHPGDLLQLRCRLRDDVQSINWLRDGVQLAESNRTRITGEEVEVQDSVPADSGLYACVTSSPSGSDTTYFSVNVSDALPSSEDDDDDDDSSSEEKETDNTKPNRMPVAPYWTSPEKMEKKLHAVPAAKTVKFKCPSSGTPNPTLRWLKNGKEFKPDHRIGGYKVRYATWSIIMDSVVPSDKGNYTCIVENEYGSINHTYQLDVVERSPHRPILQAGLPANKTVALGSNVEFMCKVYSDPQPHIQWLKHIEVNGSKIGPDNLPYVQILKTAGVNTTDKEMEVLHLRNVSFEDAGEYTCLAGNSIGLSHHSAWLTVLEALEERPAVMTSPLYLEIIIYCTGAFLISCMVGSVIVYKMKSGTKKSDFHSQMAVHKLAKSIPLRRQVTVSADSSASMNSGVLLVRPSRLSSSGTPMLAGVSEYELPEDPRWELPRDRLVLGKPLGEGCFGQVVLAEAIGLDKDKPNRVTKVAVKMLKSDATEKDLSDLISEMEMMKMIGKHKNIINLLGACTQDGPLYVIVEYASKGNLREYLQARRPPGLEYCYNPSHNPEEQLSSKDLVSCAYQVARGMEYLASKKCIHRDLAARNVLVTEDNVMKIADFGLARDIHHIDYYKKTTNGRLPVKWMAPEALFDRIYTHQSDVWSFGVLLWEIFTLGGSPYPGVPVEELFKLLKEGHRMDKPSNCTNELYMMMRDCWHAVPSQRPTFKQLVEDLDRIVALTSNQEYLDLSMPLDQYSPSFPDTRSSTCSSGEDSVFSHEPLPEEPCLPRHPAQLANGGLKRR
Chain of Aurora kinase A (O14965 whole entry): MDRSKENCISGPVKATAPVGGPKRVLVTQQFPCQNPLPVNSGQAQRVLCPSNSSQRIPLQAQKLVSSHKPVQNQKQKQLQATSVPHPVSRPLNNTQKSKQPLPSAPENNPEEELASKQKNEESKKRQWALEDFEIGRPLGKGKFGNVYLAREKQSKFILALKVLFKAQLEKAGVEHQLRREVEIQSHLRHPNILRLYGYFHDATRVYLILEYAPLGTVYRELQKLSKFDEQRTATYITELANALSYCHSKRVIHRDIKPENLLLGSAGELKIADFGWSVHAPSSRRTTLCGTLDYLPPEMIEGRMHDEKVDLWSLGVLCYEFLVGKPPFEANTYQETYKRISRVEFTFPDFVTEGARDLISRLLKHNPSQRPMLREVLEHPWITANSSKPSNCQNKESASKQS
Chain of MAP/microtubule affinity-regulating kinase 3 (P27448 whole entry): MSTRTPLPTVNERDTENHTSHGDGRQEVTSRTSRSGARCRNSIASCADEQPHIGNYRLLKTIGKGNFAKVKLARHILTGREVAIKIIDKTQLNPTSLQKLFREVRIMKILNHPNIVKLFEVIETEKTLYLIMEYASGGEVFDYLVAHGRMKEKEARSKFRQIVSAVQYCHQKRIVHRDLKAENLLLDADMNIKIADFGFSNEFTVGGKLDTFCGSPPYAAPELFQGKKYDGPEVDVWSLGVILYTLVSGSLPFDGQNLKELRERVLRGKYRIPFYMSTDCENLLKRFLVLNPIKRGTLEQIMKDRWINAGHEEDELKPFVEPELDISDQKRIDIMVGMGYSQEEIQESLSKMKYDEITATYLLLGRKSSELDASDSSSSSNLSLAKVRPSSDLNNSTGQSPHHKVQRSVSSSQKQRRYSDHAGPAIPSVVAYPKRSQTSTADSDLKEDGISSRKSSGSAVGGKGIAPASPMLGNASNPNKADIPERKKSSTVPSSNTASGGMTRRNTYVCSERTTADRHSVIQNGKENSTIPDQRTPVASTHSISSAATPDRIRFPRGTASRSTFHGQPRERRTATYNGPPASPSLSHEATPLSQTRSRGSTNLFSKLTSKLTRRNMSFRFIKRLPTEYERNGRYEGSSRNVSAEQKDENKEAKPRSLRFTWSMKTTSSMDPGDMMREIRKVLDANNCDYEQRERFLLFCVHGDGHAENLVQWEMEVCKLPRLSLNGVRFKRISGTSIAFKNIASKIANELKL
Chain of Casein kinase II subunit alpha (P68400 whole entry): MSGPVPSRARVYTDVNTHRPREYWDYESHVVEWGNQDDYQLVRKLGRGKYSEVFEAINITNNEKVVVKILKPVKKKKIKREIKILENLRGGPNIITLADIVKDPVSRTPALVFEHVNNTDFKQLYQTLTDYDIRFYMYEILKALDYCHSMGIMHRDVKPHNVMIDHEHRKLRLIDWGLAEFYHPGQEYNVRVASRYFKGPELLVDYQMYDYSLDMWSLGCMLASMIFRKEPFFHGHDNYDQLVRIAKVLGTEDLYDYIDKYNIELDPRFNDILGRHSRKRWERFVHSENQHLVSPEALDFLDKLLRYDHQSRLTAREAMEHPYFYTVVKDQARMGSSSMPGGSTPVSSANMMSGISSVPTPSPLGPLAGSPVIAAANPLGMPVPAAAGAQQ

SMILES: Fc1ccc2c(c1)-c1n[nH]cc1CS2
- Ki [1]: 6.31 µM (active)
- Ki [2]: 6.31 µM (active)
- Ki [3]: 10 µM (active)
- Ki (Aurora kinase A): 5.01 µM (active)
- Ki [4]: 15.8 µM (active)
- Ki [5]: 12.6 µM (active)

SMILES: COc1cccc(/C=N/Nc2cc(C)nc(-c3ccccc3O)n2)c1O
- IC50 (Orexin receptor type 2 [6]): > 50 µM (inactive)
- IC50 [7]: 2.91 µM (active)
- EC50 [8]: 5.22 µM (inconclusive)
- CC50 [9]: 5.1 µM (active)
- AC50 [10]: 16.2 µM (active)
- EC50 [11]: 0.294 µM (active)
- IC50 [12]: > 49.8 µM (inactive)
- IC50 (CHO-K1): > 66.2 µM (inactive)
- AC50 (INS1): 1.93 µM (active)
- IC50 (Orexin receptor type 2 [13]): 11.9 µM (inactive)
- AC50 [14]: 30.1 µM (active)
- EC50 (Protein RecA): 357 µM (inconclusive)
- AC50 (Paired box protein Pax-8): 5.5 µM (active)
- EC50 [15]: 0.876 µM (active)
- EC50 (Streptococcus): 6.64 µM (active)
- EC50 (Streptokinase A): > 150 µM (not active)
- IC50 [16]: 3.31 µM (active)
